Reference: US20050176739A1, “Therapeutic agent for eating disorders” (priority 1999, published 2005)

Tests used:
[1] = Body weight change by 4-week oral administration (Test Example 2); assay type: in vivo, rat
Method: (§1) Action of Increasing Feed Intake and Body Weight by 4-Week Oral Administration
(§2) Compound 1 was suspended in a 0.5% aqueous methyl cellulose solution to a final concentration of 20 mg/mL for 200 mg/kg dose or 40 mg/mL for 400 mg/kg dose, and the resulting solution was used.
(§3) Male and female Crj:CD (SD) rats (SPF) at the age 5 of weeks were purchased from Nippon Charles River Co., Ltd., and were then fed and conditioned for 7 days. During the term, their body weight change and conditions were observed, and animals determined as in healthy conditions were used at the test. At the start of the use, the body weights of the male animals were within a range of 177.4 to 193.6 g, while those of the female animals were within a range of 141.1 to 160.3 g. During both of the conditioning and feeding term and the test term, the animals were fed with a solid feed for mouse and rat [FR-2, Funabashi Agricultural Farm Co., Ltd.] and with water ad libitum.
(§4) As to the number of the animals used, 5 each of male and female animals were used for each group. As a negative control group, a group administered a 0.5% aqueous methyl cellulose solution alone was prepared. Based on the body weight at the termination of the conditioning and feeding term, the animals were randomly assigned to individual groups, so that the body weights were uniformly distributed among the resulting individual groups.
(§5) Oral administration was selected as the administration route. The solvent or the test compound was administered once daily in the morning for 4 weeks in a dose of 1 mL per 100 g of body weight.
(§6) The body weights and feed intake of the test animals were measured on days 0, 7, 14, 21 and 28. The individual measured values were tested, based on the same standards as in the […].

[2] = system: Crj:CD (SD) rats; experiment: Feed intake change by 4-week oral administration (Test Example 2); assay type: in vivo, rat
Method: as §1, §2, §3, §4, §5, §6

[3] = system: Crj:CD (SD) rats; experiment: Action of increasing feed intake by 4-week oral administration (Test Example 1); assay type: in vivo, rat
Method: Action of Increasing Feed Intake by 4-Week Oral Administration
Compound 1 was suspended in a 0.5% aqueous methyl cellulose solution to a final concentration of 0.6 mg/mL for 6 mg/kg dose, 3 mg/mL for 30 mg/kg dose, 16 mg/mL for 160 mg/kg dose, or 80 mg/mL for 800 mg/kg dose, and the resulting solution was used.
Male and female Crj:CD (SD) rats (SPF) at the age of 5 weeks were purchased from Nippon Charles River Co., Ltd., and were then fed and conditioned for 9 days. During the term, their body weight change and conditions were observed, and animals determined as in healthy conditions were used at the test. At the start of the use, the body weights of the male animals were within a range of 187 to 209 g, while those of the female animals were within a range of 147 to 173 g. During both of the conditioning and feeding term and the test term, the animals were fed with a solid feed for mouse and rat (CRF-1 15 kGy, Oriental Yeast Industry, Co., Ltd.) and with water, ad libitum.
as §4, with “used, 15” for “used, 5”
Oral administration was selected as the administration route. The solvent or a test compound-containing solution was administered once daily in the morning for 4 weeks in a dose of 1 mL per 100 g of body weight.
The feed intake of the test animals was measured on days 7, 14, 21 and 28. The measured values were tested for homoscedasticity by the Bartlett's test. When the variance was homogeneous, one-way layout analysis of variance was performed; in the case that significance was observed, herein, the control group and the individual dosed groups were tested by the Dunnett's test. When the variance was not homogeneous, the Kruskal-Wallis's rank test was performed; in the case that significance was observed among the groups, the Dunnett's test was conducted.

[4] = system: dd-strain male mice; experiment: Acute toxicity test; assay type: in vivo, mouse; conditions: oral administration, mortality seven days after administration
Text: Test compounds were orally administered to groups of dd-strain male mice weighing 20±1 g, each group consisting of three mice.

[5] = 4-week oral administration, male and female rats
[6] = female rats, 200 mg/kg po once daily, day 0
[7] = female rats, 200 mg/kg po once daily, day 7
[8] = female rats, 200 mg/kg po once daily, day 14
[9] = female rats, 200 mg/kg po once daily, day 21
[10] = female rats, 200 mg/kg po once daily, day 28
[11] = female rats, 400 mg/kg po once daily, day 0
[12] = female rats, 400 mg/kg po once daily, day 7
[13] = female rats, 400 mg/kg po once daily, day 14
[14] = female rats, 400 mg/kg po once daily, day 21
[15] = female rats, 400 mg/kg po once daily, day 28
[16] = male rats, 200 mg/kg po once daily, day 0
[17] = male rats, 200 mg/kg po once daily, day 7
[18] = male rats, 200 mg/kg po once daily, day 14
[19] = male rats, 200 mg/kg po once daily, day 21
[20] = male rats, 200 mg/kg po once daily, day 28
[21] = male rats, 400 mg/kg po once daily, day 0
[22] = male rats, 400 mg/kg po once daily, day 7
[23] = male rats, 400 mg/kg po once daily, day 14
[24] = male rats, 400 mg/kg po once daily, day 21
[25] = male rats, 400 mg/kg po once daily, day 28

CCn1c(=O)c2c(nc(/C=C/c3cc(OC)c4c(c3)OCO4)n2C)n(CC)c1=O [Compound 3, (E)-1,3-diethyl-8-(3-methoxy-4,5-methylenedioxystyryl)-7-methylxanthine]
melting point: 201.5 to 202.3 °C

CCn1c(=O)c2c(nc(/C=C/c3ccc(OC)c(OC)c3)n2C)n(CC)c1=O [Compound 1, (E)-8-(3,4-dimethoxystyryl)-1,3-diethyl-7-methylxanthine]
effect on body weight (in words) [1, 5]: increased the feed intake and body weight | Body weight (g ± SD) [1, 6]: 151.0 ± 5.7 g | Body weight (g ± SD) [1, 7]: 178.6 ± 7.6 g | Body weight (g ± SD) [1, 8]: 206.0 ± 7.1 g | Body weight (g ± SD) [1, 9]: 232.5 ± 13.4 g | Body weight (g ± SD) [1, 10]: 255.7 ± 17.3 g | Body weight (g ± SD) [1, 11]: 152.9 ± 4.5 g | Body weight (g ± SD) [1, 12]: 178.1 ± 3.3 g | Body weight (g ± SD) [1, 13]: 207.8 ± 11.5 g | Body weight (g ± SD) [1, 14]: 236.5 ± 16.3 g | Body weight (g ± SD) [1, 15]: 259.3 ± 14.3 g | Body weight (g ± SD) [1, 16]: 191.2 ± 2.4 g | Body weight (g ± SD) [1, 17]: 247.3 ± 4.8 g | Body weight (g ± SD) [1, 18]: 313.5 ± 12.1 g | Body weight (g ± SD) [1, 19]: 371.5 ± 23.9 g | Body weight (g ± SD) [1, 20]: 419.2 ± 28.0 g | Body weight (g ± SD) [1, 21]: 189.5 ± 4.4 g | Body weight (g ± SD) [1, 22]: 242.5 ± 10.7 g | Body weight (g ± SD) [1, 23]: 304.8 ± 15.7 g | Body weight (g ± SD) [1, 24]: 361.9 ± 23.8 g | Body weight (g ± SD) [1, 25]: 415.6 ± 29.2 g | effect on feed intake (in words) [2, 5]: increased the feed intake | Feed intake (g ± SD) [2, 6]: 13.4 ± 1.7 g | Feed intake (g ± SD) [2, 7]: 20.2 ± 1.7 g | Feed intake (g ± SD) [2, 8]: 21.8 ± 1.7 g | Feed intake (g ± SD) [2, 9]: 20.9 ± 2.6 g | Feed intake (g ± SD) [2, 10]: 23.8 ± 3.0 g | Feed intake (g ± SD) [2, 11]: 14.6 ± 1.7 g | Feed intake (g ± SD) [2, 12]: 19.5 ± 2.2 g | Feed intake (g ± SD) [2, 13]: 21.1 ± 2.9 g | Feed intake (g ± SD) [2, 14]: 22.0 ± 2.6 g | Feed intake (g ± SD) [2, 15]: 24.5 ± 2.5 g | Feed intake (g ± SD) [2, 16]: 20.1 ± 1.0 g | Feed intake (g ± SD) [2, 17]: 28.4 ± 1.5 g | Feed intake (g ± SD) [2, 18]: 29.9 ± 1.6 g | Feed intake (g ± SD) [2, 19]: 30.2 ± 3.5 g | Feed intake (g ± SD) [2, 20]: 31.0 ± 1.1 g | Feed intake (g ± SD) [2, 21]: 20.7 ± 1.2 g | Feed intake (g ± SD) [2, 22]: 27.9 ± 2.5 g | Feed intake (g ± SD) [2, 23]: 30.2 ± 3.8 g | Feed intake (g ± SD) [2, 24]: 30.3 ± 3.9 g | Feed intake (g ± SD) [2, 25]: 34.8 ± 4.4 g | effect on feed intake (in words) [3, 5]: increased the feed intake both in the males and in the females | Feed intake (g ± SD) ([3]; female rats, 6 mg/kg po once daily, day 7): 15.93 ± 1.09 g | Feed intake (g ± SD) ([3]; female rats, 6 mg/kg po once daily, day 14): 18.03 ± 1.37 g | Feed intake (g ± SD) ([3]; female rats, 6 mg/kg po once daily, day 21): 18.76 ± 1.18 g | Feed intake (g ± SD) ([3]; female rats, 6 mg/kg po once daily, day 28): 18.80 ± 1.46 g | Feed intake (g ± SD) ([3]; female rats, 30 mg/kg po once daily, day 7): 17.24 ± 1.19 g | Feed intake (g ± SD) ([3]; female rats, 30 mg/kg po once daily, day 14): 19.38 ± 1.74 g | Feed intake (g ± SD) ([3]; female rats, 30 mg/kg po once daily, day 21): 19.93 ± 2.08 g | Feed intake (g ± SD) ([3]; female rats, 30 mg/kg po once daily, day 28): 20.50 ± 1.96 g | Feed intake (g ± SD) ([3]; female rats, 160 mg/kg po once daily, day 7): 17.73 ± 1.40 g | Feed intake (g ± SD) ([3]; female rats, 160 mg/kg po once daily, day 14): 19.56 ± 1.68 g | Feed intake (g ± SD) ([3]; female rats, 160 mg/kg po once daily, day 21): 20.56 ± 1.73 g | Feed intake (g ± SD) ([3]; female rats, 160 mg/kg po once daily, day 28): 20.87 ± 2.04 g | Feed intake (g ± SD) ([3]; female rats, 800 mg/kg po once daily, day 7): 17.30 ± 0.99 g | Feed intake (g ± SD) ([3]; female rats, 800 mg/kg po once daily, day 14): 19.19 ± 1.44 g | Feed intake (g ± SD) ([3]; female rats, 800 mg/kg po once daily, day 21): 20.43 ± 1.69 g | Feed intake (g ± SD) ([3]; female rats, 800 mg/kg po once daily, day 28): 21.13 ± 1.76 g | Feed intake (g ± SD) ([3]; male rats, 6 mg/kg po once daily, day 7): 21.45 ± 1.28 g | Feed intake (g ± SD) ([3]; male rats, 6 mg/kg po once daily, day 14): 23.97 ± 1.21 g | Feed intake (g ± SD) ([3]; male rats, 6 mg/kg po once daily, day 21): 24.96 ± 1.58 g | Feed intake (g ± SD) ([3]; male rats, 6 mg/kg po once daily, day 28): 25.23 ± 1.80 g | Feed intake (g ± SD) ([3]; male rats, 30 mg/kg po once daily, day 7): 23.54 ± 2.15 g | Feed intake (g ± SD) ([3]; male rats, 30 mg/kg po once daily, day 14): 26.12 ± 2.03 g | Feed intake (g ± SD) ([3]; male rats, 30 mg/kg po once daily, day 21): 27.03 ± 2.07 g | Feed intake (g ± SD) ([3]; male rats, 30 mg/kg po once daily, day 28): 27.37 ± 2.56 g | Feed intake (g ± SD) ([3]; male rats, 160 mg/kg po once daily, day 7): 23.94 ± 1.58 g | Feed intake (g ± SD) ([3]; male rats, 160 mg/kg po once daily, day 14): 26.20 ± 1.77 g | Feed intake (g ± SD) ([3]; male rats, 160 mg/kg po once daily, day 21): 27.31 ± 1.74 g | Feed intake (g ± SD) ([3]; male rats, 160 mg/kg po once daily, day 28): 27.81 ± 2.47 g | Feed intake (g ± SD) ([3]; male rats, 800 mg/kg po once daily, day 7): 22.84 ± 1.81 g | Feed intake (g ± SD) ([3]; male rats, 800 mg/kg po once daily, day 14): 25.40 ± 2.42 g | Feed intake (g ± SD) ([3]; male rats, 800 mg/kg po once daily, day 21): 26.67 ± 2.19 g | Feed intake (g ± SD) ([3]; male rats, 800 mg/kg po once daily, day 28): 27.03 ± 2.37 g | minimum lethal dose (MLD) [4]: greater than 1000 mg/kg
